Measurements published in patent US20230390189A1, “OCULAR IMPLANT CONTAINING AN ACTIVE INGREDIENT” (OCULAR THERAPEUTIX, INC., priority 2020, published 2023).
One block for each compound: values may come before it.

Experiments:
[1] = Solubility of axitinib; type: physicochemical
[2] = cited from earlier work; for t1/2 in the human eye: in vivo
[3] = tested on: VEGF-induced vascular leakage; assay: VEGF challenge, vascular leakage scored by fluorescein angiography; type: in vivo, Dutch belted rabbits; conditions: 1.25 mg Avastin alone (group 3); similar degree as control
[4] = 1.25 mg intravitreal; cited from earlier work

Solubility of axitinib in 25% ethanol/75% water mix (v/v) [1]: approximately 19 μg/mL
Compound: CNC(=O)c1ccccc1Sc1ccc2c(/C=C/c3ccccn3)n[nH]c2c1 [axitinib, N-methyl-2-[3-((E)-2-pyridin-2-yl-vinyl)-1H-indazol-6-ylsulfanyl]-benzamide]
Clearance half-life (t1/2) ([2]; patients, oral (Rugo et al.)): a few hours

Compound: Avastin: anti-VEGF therapeutic, 1.25 mg intravitreal
Vascular leakage after VEGF challenge, late [3]: after 3 months vascular leakage re-occurred | Half-life in rabbits [4]: 158 h

Compound: aflibercept: anti-VEGF agent, large molecule
t1/2 in the human eye [2]: several days

Compound: ranibizumab: anti-VEGF agent, large molecule
t1/2 in the human eye [2]: several days
